{
  "source": "patent US5358936A",
  "about": "“Anionic furanose derivatives, methods of making and using the same” (Gordon; Paul, priority 1991, dated 1994)",
  "key": {"[1]": {"system": "stomach ulcers", "assay": "Gastric ulcers in rats with corona virus infection treated with indomethacin (Example 26)", "format": "in vivo, rat", "description": "Corona virus is a non-lethal upper respiratory viral pathogen that not infrequently infects rat colonies. It is a type of rodent coryza or catarrh, the equivalent of a disease that falls somewhere between human influenza and a severe common cold. The animals of this study suffered from this condition, a circumstance which was evident by observation, and which was confirmed by virological diagnosis at the Biological Resources Laboratory of the University of Illinois at Chicago. Since stress is a common component of peptic ulcer development in both animals and man, it was concluded that this feature of the status of these experimental animals rendered them appropriate for an ulcer study.\nIn this study, animals were not food deprived and were divided into treatment groups such that 15 rats received 30 mg/kg indomethacin alone (in water by oral gavage), 14 rats received indomethacin plus an injection of 25 mg/kg cimetidine subcutaneously, and 7 rats received indomethacin plus subcutaneous injection of 17.5 mg/kg of Compound III.\nAll animals were sacrificed by ether euthanasia 24 hours later and their stomachs evaluated for ulcer pathology. In this study ulcers were not hemorrhagic. Results are shown below as the average number of stomach ulcers per stomach."}, "[2]": {"system": "gastric mucosal ulcers", "assay": "Healing of established gastric ulcers induced by acetic acid (Example 34)", "format": "in vivo, rat", "settings": "rat, in vivo; tripotassium salt", "description": "To evaluate drug effects on peptic ulcer healing, gastric mucosal ulcers were produced in rats, after a two day fast, by a modification of the method of Konturek et al., Am. J. Med., Vol. 86, 6A, 32 (1989). Briefly, to produce a mucosal ulcer, Konturek et al. applied 100 percent acetic acid for twenty seconds to the stomach serosa through a small cylindrical mold, 4.2 mm in diameter. The aim here was to make ulceration more severe than was achieved by the Konturek group so that spontaneous healing would not be as pronounced as they found in the controls, over an experimental period of seven days.\nAll drugs studied were suspended in 0.25 percent (by weight) aqueous methylcellulose solution as the vehicle or diluent, which also served as the placebo given to the controls. Treatments were given once daily by oral gavage, in one milliliter of vehicle. The treatment groups were: Control; Sucralfate at 200 mg/kg; and Compound III:Al at 200 mg/kg.\nAt the end of the treatment period, stomachs were removed, ulcer diameters were measured, and determination was made of the presence or absence of perforation.\nA second study was carried out in which ulcer evolution was permitted to take place over five additional days, in the absence and presence of treatment with Sucralfate.\nA third study was begun one day following the start of study 2, in which ulcer evolution was allowed to take place over five additional days, in the absence and presence of treatment with Compound III:Al.\nIn another study, after ulcer induction as above, a different dosage protocol was employed at 24 hours to evaluate the interaction of Compound III and orally administered sucralfate on ulcer healing. […] Here, daily drug doses of the following were used: (a) sucralfate at 200 mg/kg, alone and (b) in combination with 80 mg/kg Compound III given by mouth at -45 minutes, and, in a third group, (c) in combination with 10 mg/kg Compound III given IV also at -45 minutes. In this interaction study, drug treatment was continued for three and not five days, as was the case for the above studies, followed by passage of two additional non-treatment days before sacrifice of animals for evaluation of stomach ulcer area and perforation.\nData from all ulcer-healing studies employing a drug dosage of 200 mg/kg and the same ulcerogenesis protocol were pooled as to the frequency of gastric perforation observed on day five, not shown separately, with the day six perforation data shown above."}, "[3]": {"system": "rat stomachs", "assay": "Gastric pathology following inflammatory stress and indomethacin, food-deprived rats (Example 21)", "format": "in vivo", "procedure": "Stress was induced by the following procedure. On day one, under ether anesthesia, 18 male Sprague Dawley rats were injected with a suspension of Zymosan A (1 mg/ml in normal saline; Sigma Chemical Co.) in each hind paw. Swelling developed and persisted. This treatment generated activated blood complement locally (including the C5a moiety), which then spread by the bloodstream throughout the animal.\nTwenty-four hours later all rat paws were reinjected, this time with 0.1 ml of proinflammatory zymosan-activated rat serum containing additional amounts of inflammatory complement fragment C5a (as in Example 23, hereinafter). Five hours later 30 mg/kg indomethacin in an aqueous suspension was given to nine such rats by oral garage. These rats also received a subcutaneous injection of 0.1 ml normal saline. Nine other such rats were given indomethacin as above, and Compound III (50 mg/kg in normal saline subcutaneously). Four additional rats, not stressed (normal) were given water by garage as a placebo and saline subcutaneously. All rats were fed ad libitum on standard diet.\nIn contrast to the study of Example 20, above, in this study animals were food deprived for 24 hours before and also during the 24 hours following drug treatments. All animals were subjected to the inflammatory stress as described in Example 20. Eight such rats received 30 mg/kg indomethacin, and eight rats received indomethacin and Compound III (subcut., 50 mg/kg). Four rats, not stressed, were given placebo by garage.\nAll animals were sacrificed by ether euthanasia 24 hours later, and their stomachs evaluated for ulcer-related pathology.\nIn the stressed animals given indomethacin alone, pathology was much more severe than in Example 20. For scoring, therefore, the frequency of ulcers per rat stomach was quantified, and whether they were or were not bleeding."}, "[4]": {"system": "bacterial lipopolysaccharide toxicity", "assay": "Early shock symptoms (diarrhea, malaise) after bacterial endotoxin in older rabbits (Example 28 B)", "format": "in vivo, rabbit", "settings": "10 mg/kg IV; by 48 hours; all eight controls affected; P<0.01", "procedure": "B. Employing the same batch of endotoxin, the same induction methodology was applied to an older, seven month old group of rabbits. […] In this study the treatment group received 10 mg/kg of Compound III, given IV, as above."}},
  "note": "“Also recorded” adds a separate entry of the source. Structures can show the parent of a compound that is named as a salt.",
  "data": [
    {"smiles": "CC1(C)O[C@H]2O[C@H]([C@@H](COS(=O)(=O)O)OS(=O)(=O)O)[C@H](OS(=O)(=O)O)[C@H]2O1", "note": "[Compound III, 1,2-O-(2-Propylidene)-3,5,6-tri-O-sulfo-α-D-glucofuranose, tripotassium salt]", "values": [
      {"measurement": "ulcer reduction compared with cimetidine, in words", "setting": "[1]; 17.5 mg/kg Compound III vs 25 mg/kg cimetidine", "result": "greater using Compound III than cimetidine"},
      {"measurement": "Percent Inhibition of ulcer frequency", "setting": "[1]; indomethacin 30 mg/kg oral, cimetidine 25 mg/kg s.c. or Compound III 17.5 mg/kg s.c.", "result": 66, "unit": "%"},
      {"measurement": "Ulcer Frequency per stomach, Mn ± SE", "setting": "[1]; indomethacin 30 mg/kg oral, cimetidine 25 mg/kg s.c. or Compound III 17.5 mg/kg s.c. where given, P<0.02", "result": "0.86 ± 0.46", "unit": "Per Stomach"},
      {"measurement": "effect on established ulcers, in words", "setting": "[2]", "result": "used alone did not enhance the healing process; also recorded: able to prevent the perforation of established ulcers"},
      {"measurement": "bleeding ulcers in group", "setting": "[3]; eight rats", "result": "None were bleeding"},
      {"measurement": "Bleeding Ulcer Frequency, Mn ± SE", "setting": "[3]; indomethacin 30 mg/kg, Compound III 50 mg/kg subcut. where given, 24 hours, P<0.001 vs indomethacin alone", "result": 0.00, "unit": "Per Rat"},
      {"measurement": "Total Ulcer Frequency, n ± SE", "setting": "[3]; indomethacin 30 mg/kg, Compound III 50 mg/kg subcut. where given, 24 hours, P<0.01 vs indomethacin alone", "result": "0.63 ± 0.42", "unit": "Per Rat"},
      {"measurement": "ulcers per affected rat", "setting": "[3]; indomethacin: all eight rats, indomethacin + Compound III: only two rats", "result": "two and three"},
      {"measurement": "rabbits exhibiting symptoms of early shock (diarrhea, malaise)", "setting": "[4]", "result": "only one of eight"}
    ]}
  ]
}
